The source made the active and inactive calls.
Experiments:
[1] = cytotoxicity in HEK-293T cells, dose response, cytotoxicity control for BCR NF-kB inhibitor project, luminescence, B-cell screen hits (AID 489021); type: functional, cell-based;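 note: HEK-293T cells carrying an NF-kB luciferase reporter; cells exposed to compound for about 14 hours before viability readout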
[2] = molecular target: T1, Polyadenylate-binding protein 1 (Homo sapiens, UniProt P11940); assay: PABP1 MLLE–PAM2 binding inhibitor potency, dose response, biochemical, fluorescence polarization, FITC-PAM2 peptide (AID 602259); type: functional; conditions: read-out: IC50_Mean
T1 sequence (P11940 whole entry): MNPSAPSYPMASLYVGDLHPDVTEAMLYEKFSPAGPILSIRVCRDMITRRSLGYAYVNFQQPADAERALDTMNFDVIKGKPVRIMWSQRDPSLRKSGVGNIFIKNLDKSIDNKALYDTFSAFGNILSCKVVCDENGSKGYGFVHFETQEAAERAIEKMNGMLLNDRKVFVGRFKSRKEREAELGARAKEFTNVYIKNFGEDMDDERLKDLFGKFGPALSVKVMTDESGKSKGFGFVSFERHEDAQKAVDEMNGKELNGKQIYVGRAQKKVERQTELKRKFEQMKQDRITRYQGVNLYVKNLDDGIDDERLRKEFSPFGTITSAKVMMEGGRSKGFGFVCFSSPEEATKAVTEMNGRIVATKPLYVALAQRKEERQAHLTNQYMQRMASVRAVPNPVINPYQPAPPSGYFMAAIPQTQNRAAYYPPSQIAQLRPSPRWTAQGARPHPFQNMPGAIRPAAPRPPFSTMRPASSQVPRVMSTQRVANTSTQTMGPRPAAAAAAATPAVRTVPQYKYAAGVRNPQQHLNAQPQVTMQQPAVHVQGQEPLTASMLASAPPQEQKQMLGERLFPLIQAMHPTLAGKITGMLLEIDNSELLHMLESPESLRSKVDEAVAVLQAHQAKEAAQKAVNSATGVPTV

Genome polyprotein = Genome polyprotein (dengue virus type 2, UniProt P29990); assay: Dengue-2 NS5 methyltransferase inhibitors, primary screen, biochemical, confirmation dose response (AID 588689); type: functional
Genome polyprotein, sequence (P29990 2492-3391 limits assumed): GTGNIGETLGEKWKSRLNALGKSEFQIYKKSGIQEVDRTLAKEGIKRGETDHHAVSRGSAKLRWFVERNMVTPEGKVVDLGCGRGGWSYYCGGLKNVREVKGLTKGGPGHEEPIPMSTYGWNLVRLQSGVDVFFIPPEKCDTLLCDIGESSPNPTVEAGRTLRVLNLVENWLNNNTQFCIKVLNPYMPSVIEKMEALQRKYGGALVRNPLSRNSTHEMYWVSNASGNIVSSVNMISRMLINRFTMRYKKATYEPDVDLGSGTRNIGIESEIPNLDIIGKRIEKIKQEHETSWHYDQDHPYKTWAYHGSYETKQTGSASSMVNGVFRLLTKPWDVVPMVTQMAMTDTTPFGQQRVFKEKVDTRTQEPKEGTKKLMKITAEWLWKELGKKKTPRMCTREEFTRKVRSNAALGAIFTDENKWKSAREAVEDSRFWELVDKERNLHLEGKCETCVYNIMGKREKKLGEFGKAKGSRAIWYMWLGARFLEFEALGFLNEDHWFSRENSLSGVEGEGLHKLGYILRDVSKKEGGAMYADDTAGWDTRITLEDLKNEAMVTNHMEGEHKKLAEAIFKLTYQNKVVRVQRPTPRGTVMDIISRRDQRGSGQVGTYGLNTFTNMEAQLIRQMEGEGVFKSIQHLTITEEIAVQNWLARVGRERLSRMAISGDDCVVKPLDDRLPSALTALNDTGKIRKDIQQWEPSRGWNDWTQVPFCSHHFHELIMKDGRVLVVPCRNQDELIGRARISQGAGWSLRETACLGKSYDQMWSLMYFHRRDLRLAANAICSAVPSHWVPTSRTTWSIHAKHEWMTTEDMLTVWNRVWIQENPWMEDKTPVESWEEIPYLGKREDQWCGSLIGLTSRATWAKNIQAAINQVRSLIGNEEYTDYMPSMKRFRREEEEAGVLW

[3] = molecular target: Induced myeloid leukemia cell differentiation protein Mcl-1 (Homo sapiens, UniProt Q07820); type: functional
Induced myeloid leukemia cell differentiation protein Mcl-1, sequence (Q07820 whole entry): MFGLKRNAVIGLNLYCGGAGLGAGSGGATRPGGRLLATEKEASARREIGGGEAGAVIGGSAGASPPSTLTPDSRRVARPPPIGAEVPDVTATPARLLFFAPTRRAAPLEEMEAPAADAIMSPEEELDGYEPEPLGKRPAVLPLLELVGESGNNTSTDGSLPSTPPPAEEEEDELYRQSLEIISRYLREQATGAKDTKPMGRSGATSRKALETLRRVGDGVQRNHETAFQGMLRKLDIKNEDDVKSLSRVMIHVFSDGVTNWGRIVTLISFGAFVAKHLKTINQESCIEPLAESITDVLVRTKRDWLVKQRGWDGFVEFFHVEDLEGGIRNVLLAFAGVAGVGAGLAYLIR

Estrogen receptor = molecular target: T2, Estrogen receptor (Homo sapiens, UniProt P03372);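 note: potency for inhibiting coactivator peptide recruitment to the receptor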
T2 sequence (P03372 whole entry): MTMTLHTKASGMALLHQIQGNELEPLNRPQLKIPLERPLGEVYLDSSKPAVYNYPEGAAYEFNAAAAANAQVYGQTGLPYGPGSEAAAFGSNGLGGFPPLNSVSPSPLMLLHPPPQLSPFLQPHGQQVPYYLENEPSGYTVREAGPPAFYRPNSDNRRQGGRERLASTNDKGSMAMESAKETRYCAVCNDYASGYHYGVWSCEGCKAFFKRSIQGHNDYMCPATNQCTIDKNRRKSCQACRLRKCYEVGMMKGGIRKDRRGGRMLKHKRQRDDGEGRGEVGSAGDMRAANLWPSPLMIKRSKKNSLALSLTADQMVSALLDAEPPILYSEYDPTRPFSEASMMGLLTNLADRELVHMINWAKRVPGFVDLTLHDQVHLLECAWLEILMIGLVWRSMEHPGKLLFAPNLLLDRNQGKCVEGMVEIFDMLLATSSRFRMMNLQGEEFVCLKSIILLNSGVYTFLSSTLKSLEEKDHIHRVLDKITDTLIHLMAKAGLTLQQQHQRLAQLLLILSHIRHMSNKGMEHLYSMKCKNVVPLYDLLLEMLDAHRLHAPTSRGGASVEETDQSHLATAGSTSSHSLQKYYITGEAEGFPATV

[4] = molecular target: T1, Polyadenylate-binding protein 1; assay: PABP1 MLLE–PAM2 interaction inhibitors, dose response, miRNA deadenylation inhibitor project, biochemical, fluorescence polarization, Cy5-PAM2 peptide, secondary (AID 602260); type: functional; conditions: read-out: IC50_Mean
Estrogen receptor beta = Estrogen receptor beta (Homo sapiens, UniProt Q92731); assay: ERβ–SRC-3 coactivator interaction inhibitors, confirmation, orthogonal assay, biochemical, ELISA, streptavidin-HRP readout (AID 1060)
Estrogen receptor beta, sequence (Q92731 whole entry): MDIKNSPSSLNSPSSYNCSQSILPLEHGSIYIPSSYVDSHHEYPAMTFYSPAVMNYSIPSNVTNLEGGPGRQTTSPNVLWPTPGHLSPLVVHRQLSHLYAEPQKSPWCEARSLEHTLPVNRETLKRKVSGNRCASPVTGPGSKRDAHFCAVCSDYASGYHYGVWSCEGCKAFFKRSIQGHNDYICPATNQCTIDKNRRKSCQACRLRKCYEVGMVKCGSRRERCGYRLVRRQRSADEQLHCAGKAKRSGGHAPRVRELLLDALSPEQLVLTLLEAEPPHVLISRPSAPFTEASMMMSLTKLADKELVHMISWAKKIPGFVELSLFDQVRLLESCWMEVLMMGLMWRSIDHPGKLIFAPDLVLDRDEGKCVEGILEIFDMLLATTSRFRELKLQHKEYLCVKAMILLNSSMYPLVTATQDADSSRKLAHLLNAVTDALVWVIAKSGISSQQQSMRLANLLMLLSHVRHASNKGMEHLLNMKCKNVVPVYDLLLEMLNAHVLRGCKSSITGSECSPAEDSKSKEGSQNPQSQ

[5] = molecular target: T3, Zinc finger protein mex-5 (Caenorhabditis elegans, UniProt Q9XUB2); assay: MEX-5/TCR-2 RNA interaction inhibitors, dose response, biochemical, C. elegans, fluorescence polarization (AID 1960)
T3 sequence (Q9XUB2 whole entry): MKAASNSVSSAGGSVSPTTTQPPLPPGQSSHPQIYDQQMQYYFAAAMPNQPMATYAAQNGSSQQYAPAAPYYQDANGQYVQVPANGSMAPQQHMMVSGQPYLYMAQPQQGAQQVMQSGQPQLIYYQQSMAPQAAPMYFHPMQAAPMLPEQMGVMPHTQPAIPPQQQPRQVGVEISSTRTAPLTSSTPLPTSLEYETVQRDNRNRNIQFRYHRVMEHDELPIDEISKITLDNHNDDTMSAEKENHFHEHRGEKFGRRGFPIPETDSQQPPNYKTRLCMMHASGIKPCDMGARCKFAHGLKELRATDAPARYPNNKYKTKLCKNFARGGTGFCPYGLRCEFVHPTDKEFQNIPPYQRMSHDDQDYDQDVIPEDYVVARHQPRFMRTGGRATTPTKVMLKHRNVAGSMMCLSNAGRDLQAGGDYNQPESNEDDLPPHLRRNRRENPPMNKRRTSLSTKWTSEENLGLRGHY

[6] = molecular target: T4, RNA-binding protein pos-1 (Caenorhabditis elegans, UniProt G5EF15); assay: inhibitors of POS-1/mex-3 RNA binding, dose response, biochemical, fluorescence polarization (AID 1964);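 note: purified POS-1 fused to maltose binding protein made in E. coli; potency of compounds blocking POS-1 binding to fluorescent RNA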
T4 sequence (G5EF15 whole entry): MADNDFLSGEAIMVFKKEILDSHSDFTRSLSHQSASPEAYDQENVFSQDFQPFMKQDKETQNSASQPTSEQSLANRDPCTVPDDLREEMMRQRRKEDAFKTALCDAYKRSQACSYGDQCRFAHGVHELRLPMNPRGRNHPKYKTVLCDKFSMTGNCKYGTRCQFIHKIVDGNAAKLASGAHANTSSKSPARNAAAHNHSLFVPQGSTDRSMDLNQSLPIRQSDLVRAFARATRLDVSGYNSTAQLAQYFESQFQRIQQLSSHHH

[7] = molecular target: Luciferin 4-monooxygenase (Photinus pyralis, UniProt P08659); assay: Counter Screen for Luciferase-based Assay Positives. [Related pubchem assays: 620, 618, 411 ]
Luciferin 4-monooxygenase, sequence (P08659 whole entry): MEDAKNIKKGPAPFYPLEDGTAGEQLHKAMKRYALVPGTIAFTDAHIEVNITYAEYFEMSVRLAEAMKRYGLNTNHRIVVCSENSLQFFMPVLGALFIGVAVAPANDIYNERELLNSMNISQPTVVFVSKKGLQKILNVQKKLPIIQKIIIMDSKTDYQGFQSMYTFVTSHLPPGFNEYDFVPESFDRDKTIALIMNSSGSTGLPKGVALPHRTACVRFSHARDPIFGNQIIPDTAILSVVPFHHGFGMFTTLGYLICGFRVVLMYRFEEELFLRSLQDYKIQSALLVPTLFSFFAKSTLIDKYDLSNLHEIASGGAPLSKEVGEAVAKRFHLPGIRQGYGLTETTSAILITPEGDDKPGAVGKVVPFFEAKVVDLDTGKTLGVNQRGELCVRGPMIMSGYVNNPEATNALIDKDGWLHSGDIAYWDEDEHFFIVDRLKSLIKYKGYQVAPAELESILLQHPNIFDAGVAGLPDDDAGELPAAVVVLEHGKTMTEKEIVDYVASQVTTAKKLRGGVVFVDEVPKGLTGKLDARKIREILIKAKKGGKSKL

HT-1080 = assay: cytotoxicity in HT1080 fibrosarcoma cells, cell-based, fluorescence readout (AID 620); type: functional; conditions: Homo sapiens
[8] = molecular target: DNA dC->dU-editing enzyme APOBEC-3G (Homo sapiens, UniProt Q9HC16); assay: Dose Response confirmation of small molecule APOBEC3G DNA Deaminase Inhibitors via a fluorescence-based single-stranded DNA deaminase assay. [Related pubchem assays (depositor defined):AID493012, AID493028]; type: functional
DNA dC->dU-editing enzyme APOBEC-3G, sequence (Q9HC16 whole entry): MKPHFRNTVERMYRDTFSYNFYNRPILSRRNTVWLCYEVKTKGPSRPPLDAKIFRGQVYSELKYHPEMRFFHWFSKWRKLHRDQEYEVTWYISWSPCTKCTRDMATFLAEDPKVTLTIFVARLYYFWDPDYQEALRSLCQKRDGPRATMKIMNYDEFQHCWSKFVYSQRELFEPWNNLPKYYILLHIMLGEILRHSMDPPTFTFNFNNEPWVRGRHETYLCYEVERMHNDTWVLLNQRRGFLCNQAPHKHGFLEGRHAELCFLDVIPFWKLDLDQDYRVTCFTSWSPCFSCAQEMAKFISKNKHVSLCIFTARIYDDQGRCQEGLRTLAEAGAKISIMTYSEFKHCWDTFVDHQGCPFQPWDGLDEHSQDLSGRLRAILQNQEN

Cytochrome P450 3A4 = Cytochrome P450 3A4 (Homo sapiens, UniProt P08684); conditions: Potency;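 note: confirmatory qHTS run detecting inhibitors and substrates of CYP3A4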
Cytochrome P450 3A4, sequence (P08684 whole entry): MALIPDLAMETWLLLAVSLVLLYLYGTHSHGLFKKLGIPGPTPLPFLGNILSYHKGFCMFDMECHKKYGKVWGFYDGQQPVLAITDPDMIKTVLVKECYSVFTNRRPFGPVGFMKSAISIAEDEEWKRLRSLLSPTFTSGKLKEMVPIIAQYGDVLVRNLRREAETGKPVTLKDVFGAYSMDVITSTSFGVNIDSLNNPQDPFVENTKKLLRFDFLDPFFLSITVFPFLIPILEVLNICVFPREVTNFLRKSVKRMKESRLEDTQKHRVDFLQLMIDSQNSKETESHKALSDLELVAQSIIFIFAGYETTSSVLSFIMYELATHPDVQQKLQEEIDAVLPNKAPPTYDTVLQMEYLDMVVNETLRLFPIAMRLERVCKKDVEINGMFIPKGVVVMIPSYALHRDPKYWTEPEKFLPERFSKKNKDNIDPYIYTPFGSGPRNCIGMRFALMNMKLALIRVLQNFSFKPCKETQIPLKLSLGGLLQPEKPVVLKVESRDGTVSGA

Streptokinase A = molecular target: T5, Streptokinase A (Streptococcus pyogenes serotype M1, UniProt P10520); assay: S. pyogenes streptokinase expression inhibitors, potency, dose response, plasminogen activation absorbance, OD405 (AID 1914); type: functional, Streptococcus pyogenes M1 GAS;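 note: secreted streptokinase activity via plasminogen activation per viability signal from cell pellet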
T5 sequence (P10520 whole entry): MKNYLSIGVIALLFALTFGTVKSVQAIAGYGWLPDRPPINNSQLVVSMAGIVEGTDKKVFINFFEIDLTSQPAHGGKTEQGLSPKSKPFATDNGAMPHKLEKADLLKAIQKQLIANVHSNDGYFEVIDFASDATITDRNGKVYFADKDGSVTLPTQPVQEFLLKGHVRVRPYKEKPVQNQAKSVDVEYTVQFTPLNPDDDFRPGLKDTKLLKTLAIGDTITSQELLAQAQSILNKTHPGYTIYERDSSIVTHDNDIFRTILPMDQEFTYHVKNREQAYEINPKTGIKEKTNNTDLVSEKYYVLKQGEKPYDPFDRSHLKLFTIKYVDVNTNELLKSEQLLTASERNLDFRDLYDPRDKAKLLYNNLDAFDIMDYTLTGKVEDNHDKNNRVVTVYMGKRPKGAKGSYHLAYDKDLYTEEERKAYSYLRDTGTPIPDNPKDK

Streptococcus = assay: Group A Streptococcus viability loss, dose response, counter-screen for streptokinase expression inhibitor project, luminescence, BacTiterGlo (AID 1915); type: functional, organism-based;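 note: potency for reduction of bacterial viability or growth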
[9] = A Cell Based Secondary Assay To Explore Cytotoxicity of Compounds that Sensitize Mycobacterium Tuberculosis to Beta-Lactam Antibiotics.; type: functional
[10] = tested on: Streptococcus sp. 'group A'; assay: growth inhibition of control SK(-) GAS strain, dose response, counter-screen for streptokinase expression inhibitor project, luminescence, kanamycin, BacTiterGlo, confirmation (AID 1900); type: functional, organism-based
[11] = cytotoxicity toward NIH3T3 fibroblasts, dose response, counter-screen, cell-based, ATP luminescence, mouse fibroblasts (AID 2010); type: functional;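 note: cells exposed to compound for about 90 hours before reading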
[12] = growth suppression of beta-catenin-knockout colon cells, dose response, cell-based, HCT116, human colon tumor (AID 1045); type: functional;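 note: HCT116 colon tumor cells with beta catenin knocked out; cells exposed to compound for 60 hours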
[13] = inhibitors of intracellular T. cruzi replication, confirmation, NIH3T3 host cells, beta-gal luminescence (AID 2044); type: functional, cell-based;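 note: intracellular parasites grown in NIH/3T3 mouse fibroblasts as host cells; luminescent beta-galactosidase reporter signal from transgenic T. cruzi replicating inside host cells; inhibitors lower the luminescence signal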
[14] = growth suppression of PTEN-null colon cells, dose response, cell-based, HCT116 PTEN knockout (AID 1047); type: functional;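 note: HCT116 colon tumor cells with PTEN knocked out; cells exposed to compound for 60 hours before readout; potency for loss of cell viability measured by luminescence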
Cytochrome P450 1A2 = molecular target: T6, Cytochrome P450 1A2 (Homo sapiens, UniProt P05177);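 note: PubChem cytochrome P450 panel assay, CYP1A2 panel member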
T6 sequence (P05177 whole entry): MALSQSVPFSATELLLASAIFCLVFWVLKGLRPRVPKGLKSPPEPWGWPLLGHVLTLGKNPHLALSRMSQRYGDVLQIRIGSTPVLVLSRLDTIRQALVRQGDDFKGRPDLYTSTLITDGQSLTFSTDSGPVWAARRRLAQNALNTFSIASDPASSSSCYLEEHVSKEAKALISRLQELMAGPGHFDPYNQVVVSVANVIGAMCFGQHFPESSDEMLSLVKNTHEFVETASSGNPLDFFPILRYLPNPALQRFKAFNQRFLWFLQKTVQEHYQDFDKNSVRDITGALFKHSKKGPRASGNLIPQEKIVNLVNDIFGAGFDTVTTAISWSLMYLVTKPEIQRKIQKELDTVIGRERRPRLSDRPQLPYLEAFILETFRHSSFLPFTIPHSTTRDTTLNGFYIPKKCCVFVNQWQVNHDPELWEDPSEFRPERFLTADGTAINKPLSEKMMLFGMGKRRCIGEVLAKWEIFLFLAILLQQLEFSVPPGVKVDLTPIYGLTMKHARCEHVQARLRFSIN

Structure (SMILES): CCCc1nc2c(C)cc(-c3nc4ccccc4n3C)cc2n1Cc1ccc(-c2ccccc2C(=O)O)cc1
- IC50 [1]: > 80 µM (inactive)

Structure (SMILES): O=C(O)COc1ccc(-c2nccc(-c3ccccn3)n2)cc1
- IC50 [1]: > 80 µM (inactive)

Structure (SMILES): O=C(NCCO)c1ccc2nc(-c3ccco3)c(-c3ccco3)nc2c1
- IC50 [2]: > 66 µM (inactive)
- IC50 (Genome polyprotein): 67.7 µM (active)
- IC50 [3]: < 0.4 µM (active)
- IC50 (Estrogen receptor): > 50 µM (not active)
- IC50 [4]: > 66 µM (inactive)
- IC50 (Estrogen receptor beta): 11.4 µM (not active)
- EC50 [5]: 17.5 µM (active)
- EC50 [6]: > 300 µM (not active)

Structure (SMILES): Cc1cccc(C(=O)N2CCN(C(=O)c3cccc(C)c3)C(C)C2)c1 (centres undefined)
- EC50 [7]: 10.6 µM (active)
- EC50 (HT-1080): > 50 µM (not active)

Structure (SMILES): Brc1ccccc1-c1nc(-c2ccccc2)no1
- EC50 [7]: 5.42 µM (active)
- EC50 (HT-1080): > 50 µM (not active)

Structure (SMILES): CCCC(C)c1nnc(NC(=O)CCS(=O)(=O)c2ccccc2)s1 (centres undefined)
- IC50 [8]: 32.2 µM (active)

Structure (SMILES): COc1cccc(C2C(C)CCC3C(=O)N(C)C(C(C)C)C(=O)N32)c1 (centres undefined)
- AC50 (Cytochrome P450 3A4): 2 µM (inconclusive)

Structure (SMILES): COC(=O)C1OC(=O)C2O[C@@]23[C@]2(C)C(OC(C)=O)CC4C(C)(C)C(=O)CC[C@]4(C)C2CC[C@@]13C (some centres undefined)
- AC50 (Cytochrome P450 3A4): 39.8 µM (inconclusive)

Structure (SMILES): CC(C)CCNC(=O)CCCOc1cc(=O)n(C)c2ccccc12
- IC50 [1]: > 80 µM (inactive)

Structure (SMILES): CC1(C)CN=C(Nc2nc3ccccc3s2)S1
- EC50 (Streptokinase A): > 150 µM (not active)
- EC50 (Streptococcus): > 150 µM (not active)
- CC50 [9]: > 40 µM (active)
- EC50 [10]: 15.3 µM (active)

Structure (SMILES): CC(C)(C)C(=O)N1CCc2cc(-c3csc(N)n3)ccc21
- EC50 [7]: 9.92 µM (active)
- EC50 (HT-1080): > 50 µM (not active)

Structure (SMILES): Cc1nn(Cc2ccc(Cl)cc2)c(C)c1NC(=O)CSc1nc2c(c(C(F)(F)F)n1)CCc1ccccc1-2
- EC50 [11]: > 60 µM (not active)
- EC50 [12]: 14 µM (active)
- EC50 [13]: 1.72 µM (active)
- EC50 [14]: 12.8 µM (active)
- CC50 [9]: 29 µM (active)

Structure (SMILES): O=C(CN(Cc1ccco1)C(=O)c1cccc(Cl)c1)Nc1c(Cl)cc(Cl)cc1Cl
- CC50 [9]: 24 µM (active)
- AC50 (Cytochrome P450 1A2): 12.6 µM (inconclusive)

Structure (SMILES): CC(C)CC(C)Nc1ccc(Nc2ccccc2)cc1 (centres undefined)
- AC50 (Cytochrome P450 3A4): 25.1 µM (inconclusive)

Structure (SMILES): CC(C)(C)c1ccc(OCC(O)CSc2nnc[nH]2)cc1 (centres undefined)
- EC50 [7]: 1.29 µM (active)

Structure (SMILES): CC(=O)OCC1=C(C(=O)O)N2C(=O)C(NC(=O)Cc3cccs3)C2SC1 (centres undefined)
- AC50 (Cytochrome P450 3A4): 31.6 µM (inconclusive)

From ChEMBL document CHEMBL1201862, “PubChem BioAssay data set” (2004)
